Literature values in patent US5840756A, “Pharmaceutical composition of L-DOPA ester” (priority 1996, dated 1998).

How the values were obtained:
[1] = oral or parenteral route
[2] = oral administration; L-DOPA ethyl ester vs L-DOPA
[3] = not given; remark: listed apart in the source

| Function as a prodrug of levodopa [1] | Water solubility | Treated patients in whom disabling motor fluctuations appear ([3]; within five years after initiation, in combination with carbidopa or benserazide) | SMILES | Time courses of action [2] | Relief from the `off` state ([3]; direct instillation of a slurry through a duodenal tube) | Effect of oral dosing with a dilute aqueous solution ([3]; oral, dilute aqueous solution) |
| --- | --- | --- | --- | --- | --- | --- |
| function as a prodrug of levodopa | – | – | CCOC(=O)[C@@H](N)Cc1ccc(O)c(O)c1 [L-DOPA ethyl ester] | same time courses of action | – | – |
| – | low water solubility | about 50% | N[C@@H](Cc1ccc(O)c(O)c1)C(=O)O [levodopa] | same time courses of action | rapid relief | appeared to be effective |
